Positions of bridges follow the written chain, without caps; N, C: chain ends. Residues, ends and D or L forms follow the SMILES beside them. No end group written: not given here. *: point of attachment. Biotin = O=C1N[C@H]2[C@H](CS[C@H]2CCCCC(=O)*)N1

The values that follow come from EP1383793B1 (priority 2000, dated 2001).

The target of one assay is T1, human insulin receptor (HIR) (Homo sapiens, UniProt P06213).
T1 construct: made in house
T1 sequence (P06213 28-758 limits assumed): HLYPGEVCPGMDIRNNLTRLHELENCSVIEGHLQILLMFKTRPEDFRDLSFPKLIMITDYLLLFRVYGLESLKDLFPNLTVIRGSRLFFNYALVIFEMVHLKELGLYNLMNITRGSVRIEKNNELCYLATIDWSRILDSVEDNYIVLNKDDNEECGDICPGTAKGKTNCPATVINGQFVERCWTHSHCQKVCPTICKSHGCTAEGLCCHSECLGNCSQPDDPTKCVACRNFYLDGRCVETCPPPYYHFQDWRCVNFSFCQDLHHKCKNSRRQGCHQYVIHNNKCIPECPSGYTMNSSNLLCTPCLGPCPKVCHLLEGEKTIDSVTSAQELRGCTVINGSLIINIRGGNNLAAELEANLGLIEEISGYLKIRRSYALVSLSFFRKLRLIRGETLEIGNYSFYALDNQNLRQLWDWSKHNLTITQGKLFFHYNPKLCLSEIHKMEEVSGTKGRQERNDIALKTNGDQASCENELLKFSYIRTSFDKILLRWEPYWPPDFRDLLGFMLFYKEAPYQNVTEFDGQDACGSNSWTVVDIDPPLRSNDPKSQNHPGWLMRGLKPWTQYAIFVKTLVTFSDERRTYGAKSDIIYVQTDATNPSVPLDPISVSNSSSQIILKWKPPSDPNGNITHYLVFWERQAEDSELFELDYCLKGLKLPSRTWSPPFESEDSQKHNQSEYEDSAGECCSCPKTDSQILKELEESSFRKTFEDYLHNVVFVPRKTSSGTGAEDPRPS
T1 sequence (P06213 763-1382 limits assumed): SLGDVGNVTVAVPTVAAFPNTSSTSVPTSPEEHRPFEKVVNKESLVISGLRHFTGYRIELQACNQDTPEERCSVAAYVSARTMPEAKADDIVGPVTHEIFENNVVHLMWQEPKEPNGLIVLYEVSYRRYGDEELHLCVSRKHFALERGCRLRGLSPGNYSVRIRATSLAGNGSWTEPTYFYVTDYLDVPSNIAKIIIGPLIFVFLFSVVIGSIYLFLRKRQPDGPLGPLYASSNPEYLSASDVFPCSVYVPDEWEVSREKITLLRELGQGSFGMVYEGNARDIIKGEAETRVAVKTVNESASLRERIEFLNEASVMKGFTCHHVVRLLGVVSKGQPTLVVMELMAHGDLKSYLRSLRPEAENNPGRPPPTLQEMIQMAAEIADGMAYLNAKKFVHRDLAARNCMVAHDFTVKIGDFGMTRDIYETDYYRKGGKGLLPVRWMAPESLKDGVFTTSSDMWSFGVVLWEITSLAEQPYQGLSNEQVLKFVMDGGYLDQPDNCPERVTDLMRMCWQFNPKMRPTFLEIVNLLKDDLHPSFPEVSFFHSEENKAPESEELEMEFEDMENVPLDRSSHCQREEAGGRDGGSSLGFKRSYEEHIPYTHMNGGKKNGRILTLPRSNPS
In words: 125I-insulin competition binding assay on solubilised purified receptor. The following applies: read-out: HIR affinity.
In the case of `CC(C)[C@H](NC(=O)[C@H](Cc1ccccc1)NC(=O)[C@H](Cc1c[nH]c2ccccc12)NC(=O)[C@H](CC(=O)O)NC(=O)[C@H](Cc1ccc(O)cc1)NC(=O)[C@H](Cc1ccccc1)NC(=O)[C@H](CC(N)=O)NC(=O)[C@H](CCC(=O)O)NC(=O)[C@H](Cc1c[nH]cn1)NC(=O)[C@@H](N)Cc1ccccc1)C(=O)N[C@@H](CCCNC(=N)N)C(=O)N[C@@H](CCC(N)=O)C(=O)N[C@H](C(=O)N[C@@H](CO)C(=O)N[C@@H](CCCCN)C(=O)N[C@@H](CCCCN)C(=O)N[C@@H](CNC(=O)CON=CCCCCC=NOCC(=O)NC[C@H](NC(=O)[C@H](CCCCN)NC(=O)[C@H](CCCCN)NC(=O)[C@H](CO)NC(=O)[C@@H](NC(=O)[C@H](CCC(N)=O)NC(=O)[C@H](CCCNC(=N)N)NC(=O)[C@@H](NC(=O)[C@H](Cc1ccccc1)NC(=O)[C@H](Cc1c[nH]c2ccccc12)NC(=O)[C@H](CC(=O)O)NC(=O)[C@H](Cc1ccc(O)cc1)NC(=O)[C@H](Cc1ccccc1)NC(=O)[C@H](CC(N)=O)NC(=O)[C@H](CCC(=O)O)NC(=O)[C@H](Cc1c[nH]cn1)NC(=O)[C@@H](N)Cc1ccccc1)C(C)C)C(C)C)C(N)=O)C(N)=O)C(C)C` [Clone S169], the Kd was found to be 0.58 µM. On the same count and under the same terms, in the case of RWPNFYGYFESLLTHFS-NH2 [Clone S257] it was 14 µM. In the case of HLSVGEELSWWVALLGQWAR-NH2 [Clone S282], the Kd is over 20 µM. Still for that read-out and setting: in the case of `CC(C)[C@H](NC(=O)[C@H](Cc1ccccc1)NC(=O)[C@H](Cc1c[nH]c2ccccc12)NC(=O)[C@H](CC(=O)O)NC(=O)[C@H](Cc1ccc(O)cc1)NC(=O)[C@H](Cc1ccccc1)NC(=O)[C@H](CC(N)=O)NC(=O)[C@H](CCC(=O)O)NC(=O)[C@H](Cc1c[nH]cn1)NC(=O)[C@@H](N)Cc1ccccc1)C(=O)N[C@@H](CCCNC(=N)N)C(=O)N[C@@H](CCC(N)=O)C(=O)N[C@H](C(=O)N[C@@H](CO)C(=O)N[C@@H](CCCCN)C(=O)N[C@@H](CCCCN)C(=O)N[C@@H](CNC(=O)CON=CCCCCCCC=NOCC(=O)NC[C@H](NC(=O)[C@H](CCCCN)NC(=O)[C@H](CCCCN)NC(=O)[C@H](CO)NC(=O)[C@@H](NC(=O)[C@H](CCC(N)=O)NC(=O)[C@H](CCCNC(=N)N)NC(=O)[C@@H](NC(=O)[C@H](Cc1ccccc1)NC(=O)[C@H](Cc1c[nH]c2ccccc12)NC(=O)[C@H](CC(=O)O)NC(=O)[C@H](Cc1ccc(O)cc1)NC(=O)[C@H](Cc1ccccc1)NC(=O)[C@H](CC(N)=O)NC(=O)[C@H](CCC(=O)O)NC(=O)[C@H](Cc1c[nH]cn1)NC(=O)[C@@H](N)Cc1ccccc1)C(C)C)C(C)C)C(N)=O)C(N)=O)C(C)C` [Clone S172] it was 4.8 µM. On the same count and under the same terms, in the case of LDRQFYRYFQDLLVGFM-NH2 [Clone S260] it was 2.3 µM. The same measure, in the same setting: in the case of FHENFYDAFVRQVSKK [Clone S222] it was over 20 µM. As to FYDWF-NH2 [Clone S165], the Kd is over 20 µM. Same read-out and setting: in the case of QSFYDYIEELLGGEWKK-NH2 [Clone S288] it was 4.3 µM; in that of FHENFYDWFVRQVAKK-NH2 [Clone S105], 0.31 µM.

As for AFYDWFA-NH2 [Clone S181], the Kd was over 20 µM. On the same count and under the same terms, the same measure for TGHRLGLDEQFYWWFRDALSG-NH2 [Clone S265]: 0.11 µM; for AHENFYDWFVRQVSKK-NH2 [Clone S113]: 0.59 µM; for AAAAFYDWFAAAAAKK-NH2 [Clone S168]: 3.8 µM. Consider APVSTEELRWGALLFGQWAG-NH2 [Clone S283], for which the Kd was over 20 µM. Still for that read-out and setting: in the case of FHENFYDWFVAQVSKK-NH2 [Clone S108] it was 0.75 µM; in that of AFYDWF-NH2 [Clone S182], over 20 µM. Same read-out and setting: the same measure for FYDWFKK-NH2 [Clone S166]: over 20 µM; for FAENFYDWFVRQVSKK-NH2 [Clone S112]: 0.61 µM. Consider AFYGWFAKK-NH2 [Clone S215], for which the Kd was over 20 µM.

For the compound QAPSNFYDWFVREWDEE-NH2 [Clone S287], the Kd was 5.9 µM. Same read-out and setting: the same measure for WGRSFYRYFETLLAQGI-NH2 [Clone S261]: over 20 µM. Turning to FHENFYDWFVRQASKK-NH2 [Clone S106], the Kd amounted to 0.42 µM. On to AFYDWFAK-NH2 [Clone S180], for which the Kd is over 20 µM. Same read-out and setting: the same measure for DPFYQGLWEWLRESGEE-NH2 [Clone S289]: over 20 µM. On the same count and under the same terms, in the case of FHENFYDWFVRAVSKK-NH2 [Clone S107] it was 1 µM; in that of AFYKWFAKK-NH2 [Clone S216], over 20 µM.

With GFREGQRWYWFVAQVT-NH2 [Clone S278], the Kd is over 20 µM.

On to `CC(C)[C@H](NC(=O)[C@H](Cc1ccccc1)NC(=O)[C@H](Cc1c[nH]c2ccccc12)NC(=O)[C@H](CC(=O)O)NC(=O)[C@H](Cc1ccc(O)cc1)NC(=O)[C@H](Cc1ccccc1)NC(=O)[C@H](CC(N)=O)NC(=O)[C@H](CCC(=O)O)NC(=O)[C@H](Cc1c[nH]cn1)NC(=O)[C@H](Cc1ccccc1)NC(=O)CNC(=O)[C@@H](N)CS)C(=O)N[C@@H](CCCNC(=N)N)C(=O)N[C@@H](CCC(N)=O)C(=O)N[C@H](C(=O)N[C@@H](CO)C(=O)N[C@@H](CCCCN)C(=O)N[C@@H](CCCCN)C(N)=O)C(C)C` [Clone S171], for which the Kd stood at 2.9 µM. Turning to Ac-FYDWF-NH2 [Clone S184], the Kd is over 20 µM.

The assay is the same for the next values; noted with them: read-out: Kd (µM) HIR.
`CC(C)[C@H](NC(=O)[C@H](Cc1ccccc1)NC(=O)[C@H](Cc1c[nH]c2ccccc12)NC(=O)[C@H](CC(=O)O)NC(=O)[C@H](Cc1ccc(O)cc1)NC(=O)[C@H](Cc1ccccc1)NC(=O)[C@H](CC(N)=O)NC(=O)[C@H](CCC(=O)O)NC(=O)[C@H](Cc1c[nH]cn1)NC(=O)[C@H](Cc1ccccc1)NC(=O)[C@@H](N)CCCCN)C(=O)N[C@@H](CCCNC(=N)N)C(=O)N[C@@H](CCC(N)=O)C(=O)N[C@H](C(=O)N[C@@H](CO)C(=O)N[C@@H](CCCCN)C(=O)N[C@@H](CCCCNC(=O)CCCC[C@@H]1SC[C@@H]2NC(=O)N[C@@H]21)C(N)=O)C(C)C` [Clone D117K]: the Kd worked out at 0.82 µM.

With `CC(C)C[C@H](NC(=O)[C@H](C)NC(=O)[C@H](CO)NC(=O)[C@H](CCC(=O)O)NC(=O)[C@H](Cc1ccccc1)NC(=O)[C@H](Cc1c[nH]c2ccccc12)NC(=O)[C@H](CCC(=O)O)NC(=O)[C@H](Cc1ccc(O)cc1)NC(=O)[C@H](Cc1ccccc1)NC(=O)[C@@H](NC(=O)CNC(=O)CNC(=O)CNC(=O)[C@H](CCCNC(=N)N)NC(=O)[C@@H](N)CCCCN)[C@@H](C)O)C(=O)N[C@@H](CCCNC(=N)N)C(=O)N[C@@H](CCCCN)C(=O)N[C@@H](Cc1c[nH]cn1)C(=O)NCC(=O)N[C@@H](C)C(=O)NCC(=O)N[C@@H](CCCCN)C(=O)N[C@@H](CCCCNC(=O)CCCC[C@@H]1SC[C@@H]2NC(=O)N[C@@H]21)C(N)=O` [Clone D110] (H-KRGGGTFYEWFESALRKHGAGKK(Biotin)-NH2), the Kd stood at 0.84 µM.

The subject of a further assay is adipocytes. In words: 3H-glucose uptake into adipocytes (fat cell assay, FFC). Details: key to FFC: 0 is no effect; + is agonist; - is antagonist. The class given is cell-based, Mouse.
Settings: not given
As for FHENFYDAFVRQVSKK [Clone S222], the FFC is 0. Consider Ac-FYDWF-NH2 [Clone S184], for which the FFC is 0.

Another assay deals with human IGF-1 receptor (HIGF-1R) (Homo sapiens, UniProt P08069). The assay can be described thus: 125I-IGF-1 competition binding assay on solubilised purified receptor.
Chain of human IGF-1 receptor (HIGF-1R) (P08069 31-736 limits assumed): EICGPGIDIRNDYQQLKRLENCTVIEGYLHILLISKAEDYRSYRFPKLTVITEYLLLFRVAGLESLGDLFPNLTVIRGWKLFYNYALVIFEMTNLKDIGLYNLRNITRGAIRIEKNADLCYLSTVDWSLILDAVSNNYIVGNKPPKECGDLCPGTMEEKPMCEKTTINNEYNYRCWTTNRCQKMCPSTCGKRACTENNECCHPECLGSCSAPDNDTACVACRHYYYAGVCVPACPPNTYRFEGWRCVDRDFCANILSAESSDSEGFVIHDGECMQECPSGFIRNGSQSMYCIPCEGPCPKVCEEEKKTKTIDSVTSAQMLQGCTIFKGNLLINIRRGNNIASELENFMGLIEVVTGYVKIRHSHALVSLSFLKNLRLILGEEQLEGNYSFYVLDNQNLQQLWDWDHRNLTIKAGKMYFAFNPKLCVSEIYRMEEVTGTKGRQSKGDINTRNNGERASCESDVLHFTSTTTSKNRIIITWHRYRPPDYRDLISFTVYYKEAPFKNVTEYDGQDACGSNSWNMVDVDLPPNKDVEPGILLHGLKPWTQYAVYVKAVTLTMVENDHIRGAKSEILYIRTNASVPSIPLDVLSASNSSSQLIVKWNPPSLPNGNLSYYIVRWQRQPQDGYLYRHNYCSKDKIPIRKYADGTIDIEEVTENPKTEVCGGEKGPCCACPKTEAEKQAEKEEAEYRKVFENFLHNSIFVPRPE
Chain of human IGF-1 receptor (HIGF-1R) (P08069 741-1367 limits assumed): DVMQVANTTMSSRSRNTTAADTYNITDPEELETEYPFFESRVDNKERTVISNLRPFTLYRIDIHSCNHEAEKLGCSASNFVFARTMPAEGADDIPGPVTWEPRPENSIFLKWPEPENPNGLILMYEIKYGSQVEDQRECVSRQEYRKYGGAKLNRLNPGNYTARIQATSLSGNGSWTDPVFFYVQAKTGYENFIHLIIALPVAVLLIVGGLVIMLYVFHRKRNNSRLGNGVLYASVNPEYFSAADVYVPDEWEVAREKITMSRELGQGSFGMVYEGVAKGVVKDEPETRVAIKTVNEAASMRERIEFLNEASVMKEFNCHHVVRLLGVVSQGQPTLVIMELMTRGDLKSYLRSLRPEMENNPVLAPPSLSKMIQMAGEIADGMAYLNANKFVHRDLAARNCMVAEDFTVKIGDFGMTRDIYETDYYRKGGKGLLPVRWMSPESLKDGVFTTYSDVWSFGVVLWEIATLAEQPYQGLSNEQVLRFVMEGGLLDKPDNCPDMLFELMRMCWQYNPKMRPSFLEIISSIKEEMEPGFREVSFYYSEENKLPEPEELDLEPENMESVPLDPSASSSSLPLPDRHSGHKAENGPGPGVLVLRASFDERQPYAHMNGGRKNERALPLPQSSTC
Settings: not given
The compound `CC(C)[C@H](NC(=O)[C@H](Cc1ccccc1)NC(=O)[C@H](Cc1c[nH]c2ccccc12)NC(=O)[C@H](CC(=O)O)NC(=O)[C@H](Cc1ccc(O)cc1)NC(=O)[C@H](Cc1ccccc1)NC(=O)[C@H](CC(N)=O)NC(=O)[C@H](CCC(=O)O)NC(=O)[C@H](Cc1c[nH]cn1)NC(=O)[C@@H](N)Cc1ccccc1)C(=O)N[C@@H](CCCNC(=N)N)C(=O)N[C@@H](CCC(N)=O)C(=O)N[C@H](C(=O)N[C@@H](CO)C(=O)N[C@@H](CCCCN)C(=O)N[C@@H](CCCCN)C(=O)O)C(C)C` [Clone D117A] came in with a Kd of 5.1 µM. Regarding `CC(C)[C@H](NC(=O)[C@H](Cc1ccccc1)NC(=O)[C@H](Cc1c[nH]c2ccccc12)NC(=O)[C@H](CC(=O)O)NC(=O)[C@H](Cc1ccc(O)cc1)NC(=O)[C@H](Cc1ccccc1)NC(=O)[C@H](CC(N)=O)NC(=O)[C@H](CCC(=O)O)NC(=O)[C@H](Cc1c[nH]cn1)NC(=O)[C@H](Cc1ccccc1)NC(=O)[C@@H](N)CCCCN)C(=O)N[C@@H](CCCNC(=N)N)C(=O)N[C@@H](CCC(N)=O)C(=O)N[C@H](C(=O)N[C@@H](CO)C(=O)N[C@@H](CCCCN)C(=O)N[C@@H](CCCCNC(=O)CCCC[C@@H]1SC[C@@H]2NC(=O)N[C@@H]21)C(N)=O)C(C)C` [Clone D117K], the Kd came out at 9.1 µM. The same measure, in the same setting: in the case of `CC[C@H](C)[C@H](NC(=O)[C@@H](N)CCCCN)C(=O)NCC(=O)NCC(=O)N[C@@H](CCC(N)=O)C(=O)NCC(=O)N[C@@H](CCC(N)=O)C(=O)N[C@@H](Cc1c[nH]cn1)C(=O)N[C@@H](CCC(N)=O)C(=O)N[C@@H](CC(=O)O)C(=O)NCC(=O)N[C@@H](CC(N)=O)C(=O)N[C@@H](Cc1ccccc1)C(=O)N[C@@H](Cc1ccc(O)cc1)C(=O)N[C@@H](CC(=O)O)C(=O)N[C@@H](Cc1c[nH]c2ccccc12)C(=O)N[C@@H](Cc1ccccc1)C(=O)N[C@H](C(=O)N[C@@H](CCC(=O)O)C(=O)N[C@@H](C)C(=O)N[C@@H](CC(C)C)C(=O)N[C@@H](C)C(=O)N[C@@H](CCCCN)C(=O)N[C@@H](CCCCNC(=O)CCCC[C@@H]1SC[C@@H]2NC(=O)N[C@@H]21)C(N)=O)C(C)C` [Clone D101] (H-KIGGQGQHQDGNFYDWFVEALAKK(Biotin)-NH2) it was 13 µM.

The same assay, now with this note: Kd HIGF1R / Kd HIR.
On to `CC[C@H](C)[C@H](NC(=O)[C@H](CCC(=O)O)NC(=O)[C@@H](N)CCCCN)C(=O)N[C@@H](CCC(=O)O)C(=O)N[C@@H](C)C(=O)N[C@@H](CCC(=O)O)C(=O)N[C@@H](Cc1c[nH]c2ccccc12)C(=O)NCC(=O)N[C@@H](CCCNC(=N)N)C(=O)N[C@H](C(=O)N[C@@H](CCCNC(=N)N)C(=O)N[C@H]1CSSC[C@@H](C(=O)N[C@H](C(=O)NCC(=O)NCC(=O)N[C@@H](CCCCN)C(=O)N[C@@H](CCCCNC(=O)CCCC[C@@H]2SC[C@@H]3NC(=O)N[C@@H]32)C(=O)O)C(C)C)NC(=O)[C@H](CCCNC(=N)N)NC(=O)CNC(=O)[C@H](Cc2ccc(O)cc2)NC(=O)[C@H](C(C)C)NC(=O)[C@H](CC(C)C)NC1=O)C(C)C` [Clone D122A] (H-KEIEAEWGRVRCLVYGRCVGGKK(Biotin)-OH; disulfide 12-18 (inferred); N-terminus assumed), for which the Ratio is listed as over 20. `CC(C)C[C@@H]1NC(=O)[C@H](CO)NC(=O)[C@H](C)NC(=O)CNC(=O)[C@H](Cc2c[nH]c3ccccc23)NC(=O)[C@H](Cc2ccccc2)NC(=O)[C@H](CC(C)C)NC(=O)[C@H](CCC(=O)O)NC(=O)[C@H](CCC(=O)O)NC(=O)[C@H](CC(C)C)NC(=O)[C@H](C(C)C)NC(=O)[C@@H](NC(=O)[C@H](CC(C)C)NC(=O)[C@H](Cc2c[nH]cn2)NC(=O)[C@@H](N)CCCCN)CSSC[C@@H](C(=O)N[C@@H](CO)C(=O)NCC(=O)N[C@@H](CCCCN)C(=O)N[C@@H](CCCCNC(=O)CCCC[C@@H]2SC[C@@H]3NC(=O)N[C@@H]32)C(=O)O)NC(=O)[C@H](Cc2ccc(O)cc2)NC(=O)CNC(=O)[C@H](Cc2ccccc2)NC1=O` [Clone D124A] (H-KHLCVLEELFWGASLFGYCSGKK(Biotin)-OH; disulfide 4-19 (inferred); N-terminus assumed): the Ratio is over 200.
